{
  "source": "paper PMC11211441",
  "about": "“Distributable, metabolic PET reporting of tuberculosis” (Nature Communications, 2024)",
  "key": {"[1]": {"experiment": "Detection/stability of [19F]FDT in human plasma", "assay_type": "in vitro ADME", "settings": "spiked human plasma, LC-MS", "description": "FDT standards were prepared in human plasma (Sigma Aldrich), whereby 20 μL plasma samples were spiked with various known concentrations of [^19F]FDT i.e. 10 μM, 20 μM, 40 μM, 120 μM, 160 μM, and 300 μM in 1.5 ml Eppendorf tube and diluted with up to 50% acetonitrile solution. Samples were vortexed for 1 min and centrifuged at 13000 rpm (15871 x g) for 10 min and supernatant was analyzed directly by LC-MS using LC method 2.\nFigure S35. Detection of [19F]FDT for Assessment of Stability in Human Plasma\nA) Experimental set-up of the sample preparation. Commercially available human plasma samples were spiked with known concentrations of [19F] FDT, plasma proteins were then precipitated by adding up to 50% of MeCN solution and after centrifugation the samples were analysed by LC-MS. Panel A created with BioRender.com, released under a Creative Commons Attribution-NonCommercial-NoDerivs 4.0 International license. B) [19F]FDT standard sample analysed by LC-MS method 2 with the retention time of 6.5 min. C) LC-MS analysis of plasma sample spiked with known amount of FDT showing the similar retention […]\nefficient detection. D) Calibration curve of plasma samples when spiked with FDT concentrations from 10 µM – 300 µM with r2 = 0.998 and E) Further calibration curve showing instrument sensitivity down to > 390 nM for detection of FDT ( r2 = 0.998 ). […]"}, "[2]": {"experiment": "Single and repeat iv dose toxicity study in rats", "assay_type": "in vivo, Sprague Dawley rats", "description": "For toxicity studies, 2 g of [^19F]-FDT was synthesized and tested for quality control as described above and in Figs.39 and shipped to a contract research organization. Toxicity studies were conducted by SRI International, Biosciences Division, Menlo Park, CA, USA in rats and dogs. The experimental design is described in Tables S10, S11, respectively."}, "[3]": {"experiment": "[19F]FDT clearance and in vivo stability in marmosets (plasma LC-MS, 19F NMR)", "set-up": "species or system common marmosets", "settings": "marmosets (n = 3), LC-MS and 19F-NMR", "description": "In order to determine [^19F]FDT metabolism in vivo, we assessed concentration vs time in two mammalian species: common marmosets and C57BL/6 mice. For marmosets weighing between 290.3–340.3 g, 20 mg of sterile-filtered FDT in PBS was injected IV (n = 3) and ~200 μL blood samples were taken from the femoral vein at 0 min, 5 min, 30 min, 60 min, 90 min and 180 min post injection. Samples were spun (4000 rcf for 10 mins at room temp) to separate red cell mass from plasma. Plasma portion was separated and stored at −80 °C for further analysis. Similarly, mice weighing from 18.7–20.5 g were injected (n = 5) with 5 mg of filter-sterilized FDT solution dissolved in PBS solution, pH 7.4. Mandibular blood samples were taken at 2 min, 15 min, 30 min and 45 min post injection. For the last sample in each mouse, the animal was bled out to get maximum sample for NMR analysis. Final urine samples were collected in 3 out of 5 mice through free catch. Blood samples were centrifuged (6500 rcf for 4 mins at room temp) to separate red cell mass from plasma, and plasma was separated and stored at −80 °C prior to analyzes.\nPlasma samples from −80 °C were thawed on ice and mixed with 80% acetonitrile to precipitate plasma proteins and other biomolecules. Samples were centrifuged at 10,000 g, 4 °C for 10 min.\nFigure S37. [19F]FDT Clearance and In Vivo Stability in Non-human Primates […]\nA, B) 20 mg [19F]FDT was injected into marmosets (A, n=3 biological replicates, each measured in duplicate) and 5 mg FDT injected into mice (B, n=5 biological replicates, each measured in triplicate). […]\nmarmosets (A) and mice (B).\n[19F]FDG was detected, consistent with the only low levels of metabolism seen with [18F]FDT in rabbits (see Figure S3G). C-F) We further analyzed the potential degradation of FDT into FDG by 19F NMR spectroscopy in marmoset plasma (C) sample from 5 min time point, mouse plasma (D) sample from 30 min time point and mouse urine samples from 30 min (E) and 45 min (F) time points, respectively. In all these samples only [19F]FDT was observed (d -201.2). The data points are average values from three replicates with error bars ± SD.\n(1 picture or pasted object on this page, not shown here)"}, "[4]": {"experiment": "Human microsomal stability assay", "settings": "human liver microsomes, 3 µM, 80 min", "description": "Microsomal stability assay was carried out as described previously. In brief, 10 x reduced nicotinamide adenine dinucleotide phosphate (NADPH)-regenerating system was freshly prepared by dissolving 37.2 mg glucose-6-phosphate (Sigma) in 1 mL of 100 mM potassium phosphate buffer, 39.8 mg nicotinamide adenine dinucleotide phosphate (NADP, Sigma) in 1 mL of potassium phosphate buffer, 11.5 U glucose-6-phosphate dehydrogenase (Thermo) in 1 mL of potassium phosphate buffer and 26.8 mg MgCl2.6H2O (Sigma) in 1 mL of distilled water. All these solutions were combined and kept on ice. […] After 5 min, 18 µL of NADPH-regenerating system was added to initiate reaction. Immediately after adding the NADPH regenerating system, 50 µL, 0 min time point sample was taken and quenched with equal volume of ice-cold methanol. Similarly further samples were taken at 10 min, 30 min, 60 min, 90 min and 120 min. Samples were centrifuged at 10,000 g at 4 °C for 10 min. […] After incubating the reaction mix at 37 °C for 5 min, 36 µL of NADPH regenerating system was added to initiate the reaction. 50 µL samples were taken at 0 min, 2.5 min, 5 min, 10 min, 20 min, 40 min and 80 min and reactions were quenched by adding equal amount of ice-cold acetonitrile and kept on ice."}, "[5]": {"test_system": "mammalian (porcine) trehalase", "experiment": "Trehalase degradation assay", "assay_type": "in vitro ADME", "settings": "0.3 units/mL trehalase, 10 mM substrate", "description": "The metabolic stabilities of the remaining three analogs, [^18F]FDT, 4-epi-[^18F]FDT and 6-[^18F]FDT were tested. Although, human trehalose-degrading trehalase activity is low and restricted primarily to the brush-border of the kidney where it is thought to be GPI-anchored[28],[32], it can be elevated in some diseases, therefore we also tested degradation of the analogs in vitro using high concentrations of mammalian (porcine) trehalase (0.3 units/mL, 10 mM substrate, Fig. S5). […]\nFigure S5. Trehalase Assays.\nSubstrates were prepared to a final concentration of 10 mM in 0.05 M citric acid, pH 5.7 including trehalase stock solution (0.3 units/mL). The reaction mixture was incubated at 37 °C for 60 minutes, and then quenched with an equal volume of 0.1 M Tris, pH 7.5. Released glucose was measured with glucose assay kit (see Methods)."}},
  "data": [
    {"smiles": "OC[C@H]1O[C@H](O[C@H]2O[C@H](CO)[C@@H](O)[C@H](O)[C@H]2F)[C@H](O)[C@@H](O)[C@@H]1O", "note": "[[^19F]FDT]", "values": [
      {"measurement": "stability in human plasma", "setting": "[1]", "result": "no immediate degradation or apparent sequestration"},
      {"measurement": "maximum tolerated dose (MTD)", "setting": "[2]; Sprague Dawley rats, IV", "result": "not reached"},
      {"measurement": "adverse findings in any parameters measured", "setting": "[2]; rats, 100 x or 1000 x expected human dose iv", "result": "no adverse findings"},
      {"measurement": "degradation in plasma / in vivo", "setting": "[3]", "result": "no detectable degradation"},
      {"measurement": "degradation in plasma / in vivo", "setting": "[3]; listed as [19F]FDT", "result": "no degradation"},
      {"measurement": "% remaining", "setting": "[4]", "result": "> 50", "unit": "%"},
      {"measurement": "degradation by trehalase", "setting": "[5]", "result": "little or no degradation"},
      {"measurement": "degradation by trehalase (Figure S5, released glucose)", "setting": "[5]; pH 5.7, 37 °C, 60 minutes", "result": 0}
    ]}
  ]
}
